Drawing on ChEMBL document CHEMBL1131451, “Structural and functional analyses of benzamidine-based inhibitors in complex with trypsin: implications for the inhibition of factor Xa, tPA, and urokinase” (J Med Chem, 1998), this text covers Ki for 25 molecules.

As usually defined, the Ki is a measure of affinity in units of concentration, obtained from inhibition or displacement. Read a high Ki as a looser hold on the target.

In experiment [1] the target is Coagulation factor X (Bos taurus, UniProt P00743). Briefly: Inhibitory activity against bovine coagulation factor X expressed as dissociation constant.
Chain of Coagulation factor X (P00743 41-180 limits assumed): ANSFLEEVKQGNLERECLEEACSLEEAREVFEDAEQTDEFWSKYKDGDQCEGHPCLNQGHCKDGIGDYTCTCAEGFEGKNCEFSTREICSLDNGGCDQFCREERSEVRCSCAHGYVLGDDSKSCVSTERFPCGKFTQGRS
Chain of Coagulation factor X (P00743 234-492 limits assumed): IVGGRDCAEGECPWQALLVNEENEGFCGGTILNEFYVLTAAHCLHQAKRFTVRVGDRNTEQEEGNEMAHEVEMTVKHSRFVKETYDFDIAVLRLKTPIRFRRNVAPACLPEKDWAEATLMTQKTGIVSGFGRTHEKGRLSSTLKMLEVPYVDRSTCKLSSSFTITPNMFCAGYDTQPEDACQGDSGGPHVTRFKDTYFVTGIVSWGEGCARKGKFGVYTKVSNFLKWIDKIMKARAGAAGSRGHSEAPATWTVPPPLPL
The target of experiment [2] is Tissue-type plasminogen activator (Homo sapiens, UniProt P00750). Briefly: Inhibitory activity against human tissue-type plasminogen activator expressed as dissociation constant.
Chain of Tissue-type plasminogen activator (P00750 whole entry): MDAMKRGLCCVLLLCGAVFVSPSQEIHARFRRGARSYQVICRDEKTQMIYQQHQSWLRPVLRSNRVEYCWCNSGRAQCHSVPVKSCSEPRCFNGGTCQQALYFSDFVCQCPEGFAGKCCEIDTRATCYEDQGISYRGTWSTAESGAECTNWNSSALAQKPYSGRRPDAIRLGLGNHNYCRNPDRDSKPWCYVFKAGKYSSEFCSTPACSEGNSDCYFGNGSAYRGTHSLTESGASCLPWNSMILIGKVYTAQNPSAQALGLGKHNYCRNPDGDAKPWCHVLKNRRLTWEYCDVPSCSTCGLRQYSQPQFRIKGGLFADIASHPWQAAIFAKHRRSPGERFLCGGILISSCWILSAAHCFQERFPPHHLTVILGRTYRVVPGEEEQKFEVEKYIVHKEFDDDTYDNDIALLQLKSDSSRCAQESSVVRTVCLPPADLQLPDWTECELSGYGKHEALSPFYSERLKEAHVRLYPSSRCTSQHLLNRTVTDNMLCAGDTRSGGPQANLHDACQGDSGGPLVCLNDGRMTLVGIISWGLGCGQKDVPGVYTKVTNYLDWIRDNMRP
The target of experiment [3] is Prothrombin (Bos taurus, UniProt P00735). Briefly: Inhibitory activity against bovine thrombin expressed as dissociation constant.
Experiment [4] deals with Urokinase-type plasminogen activator (Homo sapiens, UniProt P00749). Put plainly: Inhibitory activity against human urokinase plasminogen activator expressed as dissociation constant.
Experiment [5] has as its target T1, Serine protease 1 (Bos taurus, UniProt P00760).
T1 sequence (P00760 whole entry): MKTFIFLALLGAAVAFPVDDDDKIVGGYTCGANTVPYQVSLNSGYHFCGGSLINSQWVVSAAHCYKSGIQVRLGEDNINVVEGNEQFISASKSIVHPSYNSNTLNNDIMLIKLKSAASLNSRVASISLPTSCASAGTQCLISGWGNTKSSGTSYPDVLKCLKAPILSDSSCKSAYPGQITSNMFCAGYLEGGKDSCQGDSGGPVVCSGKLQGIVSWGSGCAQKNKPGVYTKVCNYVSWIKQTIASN
Briefly: Inhibitory activity against bovine trypsin expressed as dissociation constant.

Take `CC(C)OC(=O)C(Cc1cccc(C(N)N)c1)NC(=O)CNS(=O)(=O)c1ccc2ccccc2c1` (configuration not stated): the Ki in experiment [1] came to 0.24 µM; in experiment [2], 33 µM; in experiment [3], 1.2 µM; in experiment [4], 49 µM; in experiment [5], 3.7 µM.
As to `COC(=O)C1CCN(C(=O)C(Cc2cccc(C(=N)N)c2)NS(=O)(=O)c2ccc3ccccc3c2)CC1` (configuration not stated), the inhibition constant (Ki) was 43 µM in experiment [1], 0.017 µM in experiment [3] and 9.3 µM in experiment [4].
`Cc1ccc(S(=O)(=O)NC(Cc2cccc(C(=N)N)c2)C(=O)N2CCC(C)CC2)cc1` (configuration not stated): the results for the inhibition constant (Ki) in experiment [1] and in experiment [4] were 71 µM and 25 µM, respectively.
Regarding `CC(C)c1cc(C(C)C)c(S(=O)(=O)NC(Cc2cccc(C(N)N)c2)C(=O)N2CCN(C(=O)OCc3ccccc3)CC2)c(C(C)C)c1` (configuration not stated), the Ki stood at 2.7 µM in experiment [1]; 0.95 µM in experiment [2]; 1.1 µM in experiment [3]; 1.4 µM in experiment [4]; 0.2 µM in experiment [5].
For the molecule `CC1CCN(C(=O)C(Cc2cccc(C(=N)N)c2)NS(=O)(=O)c2ccc3c(c2)C(=O)c2ccccc2C3=O)CC1` (configuration not stated), the inhibition constant Ki in experiment [1] came to 2.3 µM; in experiment [4], 40 µM.
For `NC(N)c1ccc(/C=C2\CCCC/C(=C\c3ccc(C(N)N)cc3)C2=O)cc1`, the inhibition constant Ki in experiment [1] turned out to be 0.013 µM; in experiment [2] it was 0.035 µM; in experiment [3], 0.32 µM; in experiment [4], 3.4 µM; in experiment [5] it was 0.09 µM.
For the molecule `CC1CCN(C(=O)C(Cc2cccc(C(=N)N)c2)NS(=O)(=O)c2c(C(C)C)cc(C(C)C)cc2C(C)C)CC1` (configuration not stated), the Ki in experiment [1] worked out at 2 µM; in experiment [3] it was 0.075 µM; in experiment [4] it was 2 µM.
`N=C(N)c1cccc(CC(NS(=O)(=O)c2ccc3ccccc3c2)C(=O)N2CCNCC2)c1` (configuration not stated): the Ki in experiment [4] turned out to be 48 µM.
Turning to `COC(=O)C1CCCN(C(=O)C(Cc2cccc(C(=N)N)c2)NS(=O)(=O)c2ccc3ccccc3c2)C1` (configuration not stated), the Ki came to 18 µM in experiment [1], 0.15 µM in experiment [3] and 26 µM in experiment [4].
For `COC(=O)C(Cc1cccc(C(N)N)c1)NC(=O)CNS(=O)(=O)c1ccc(C)cc1` (configuration not stated), the Ki was 23 µM in experiment [2], 3.9 µM in experiment [3], 78 µM in experiment [4] and 5.7 µM in experiment [5].
Regarding `N=C(N)c1ccccc1` [BENZAMIDINE], the inhibitory constant (Ki) in experiment [1] was determined as 160 µM; in experiment [3], 890 µM.
Take `CC1CCCN(C(=O)C(Cc2cccc(C(=N)N)c2)NS(=O)(=O)c2ccc3ccccc3c2)C1` (configuration not stated): the Ki in experiment [1] was determined as 32 µM; in experiment [3] it was 0.13 µM; in experiment [4] it was 35 µM; in experiment [5] it was 0.53 µM.
For `CC1CCN(C(=O)C(Cc2cccc(C(=N)N)c2)NS(=O)(=O)c2cccc3ccccc23)CC1` (configuration not stated), the Ki in experiment [1] was 42 µM; in experiment [4], 34 µM.
As for `N=C(N)c1cccc(CC(NS(=O)(=O)c2ccc3ccccc3c2)C(=O)N2CCCCC2)c1` (configuration not stated), the inhibition constant Ki in experiment [4] was 38 µM.
With `NC(N)c1ccc(CC(NC(=O)CNS(=O)(=O)c2ccc3ccccc3c2)C(=O)N2CCCCC2)cc1` (configuration not stated), the Ki in experiment [2] is 70 µM; in experiment [3], 0.006 µM; in experiment [4], greater than 1000 µM.
For `CC(C)c1cc(C(C)C)c(S(=O)(=O)NC(Cc2cccc(C(N)N)c2)C(=O)N2CCCC(C(=O)NCc3ccccc3)C2)c(C(C)C)c1` (configuration not stated), the Ki in experiment [1] is 2.5 µM; in experiment [2], 0.98 µM; in experiment [3] it was 1.8 µM; in experiment [4], 1.6 µM; in experiment [5], 0.46 µM.
In the same order, the values of `CCOC(=O)C1CCN(C(=O)C(Cc2cccc(C(=N)N)c2)NS(=O)(=O)c2ccc3ccccc3c2)CC1` (configuration not stated) are 18 µM, 24 µM, 0.22 µM, 4.5 µM and 0.0084 µM.
Molecule `CC1CCN(C(=O)C(Cc2cccc(C(=N)N)c2)NS(=O)(=O)c2ccc3ccccc3c2)CC1` (configuration not stated) showed a Ki in experiment [4] of 31 µM.
With `CC1CCN(C(=O)C(Cc2cccc(C(=N)N)c2)NC(=O)OC(C)(C)C)CC1` (configuration not stated), the Ki was 64 µM in experiment [1] and 56 µM in experiment [4].
Take `CCOC(=O)N1CCN(C(=O)C(Cc2cccc(C(N)N)c2)NS(=O)(=O)c2c(C(C)C)cc(C(C)C)cc2C(C)C)CC1` (configuration not stated): the inhibition constant Ki turned out to be 1.7 µM in experiment [1]; 0.57 µM in experiment [2]; 0.49 µM in experiment [3]; 0.41 µM in experiment [4]; 0.037 µM in experiment [5].
In experiment [4], `N=C(N)c1cccc(CC(NS(=O)(=O)c2ccc3ccccc3c2)C(=O)N2CCN(c3ccccc3)CC2)c1` (configuration not stated) came in with an inhibition constant (Ki) of 41 µM.
On to `Cc1ccc(S(=O)(=O)NC(Cc2cccc(C(N)N)c2)C(=O)N2CCCCC2)cc1` (configuration not stated), for which the inhibition constant Ki in experiment [1] stood at 15 µM; in experiment [2], 120 µM; in experiment [3] it was 0.34 µM; in experiment [4], 55 µM.
Consider `CNC(=O)C(Cc1cccc(C(N)N)c1)NC(=O)CNS(=O)(=O)c1ccc2ccccc2c1` (configuration not stated), for which the inhibition constant (Ki) in experiment [1] is 3 µM; in experiment [2], 69 µM; in experiment [3] it was 9.6 µM; in experiment [4], greater than 1000 µM; in experiment [5] it was 9.2 µM.
Turning to `CC1CCN(C(=O)C(N)Cc2cccc(C(=N)N)c2)CC1` (configuration not stated), the inhibition constant Ki in experiment [1] was 230 µM; in experiment [4], 800 µM.
In the same order, the values of `Cc1cc(C)c(S(=O)(=O)NC(Cc2cccc(C(=N)N)c2)C(=O)N2CCC(C)CC2)c(C)c1` (configuration not stated) are 95 µM and 16 µM.
